Measured values from patent EP4786487A1, “PEPTIDE” (Peptidream Inc, priority 2023, dated 2025).
Where two headings read alike, the source gives them in different places. Starred links: 1 amine or outer side, 2 acyl side, 3 side chain; linkers in the order of their positions; H or OH if unused. Positions of bridges follow the written chain, without caps; N, C: chain ends. Non-standard residues stand in square brackets, D forms with d. Residues, ends and D or L forms follow the SMILES beside them. *: point of attachment. Phe(3-OCH2COOH) = N[C@@H](Cc1cccc(OCC(=O)O)c1)C(=O)O; Trp(6-OH) = N[C@@H](Cc1c[nH]c2cc(O)ccc12)C(=O)O; Phe(4-COOH) = N[C@@H](Cc1ccc(C(=O)O)cc1)C(=O)O; Piperazinyl(4-CH2COOH) = O=C(O)CN1CCN(*)CC1; Gly(decyl) = CCCCCCCCCC[C@H](N)C(=O)O; Gly(octyl) = CCCCCCCC[C@H](N)C(=O)O; X1 = CCCCCCC[C@H](N[*:1])C(=O)[*:2]; Gly(N-(CH2)3OMe) = COCCCNCC(=O)O; NMeF = CN[C@@H](Cc1ccccc1)C(=O)O; NMeE = CN[C@@H](CCC(=O)O)C(=O)O; Cha = N[C@@H](CC1CCCCC1)C(=O)O; NMeA = CN[C@@H](C)C(=O)O; Bn = c1ccc(C*)cc1; NEtG = CCNCC(=O)O; Sar = CNCC(=O)O

Columns and labels:
Format in all cases: cell-based
Myostatin [1] = assay: Reporter gene assay for myostatin signaling in HepG2 cell line, Evaluation Procedure (1), myostatin inhibition; conditions: GDF-11 IC50 versus Myostatin IC50
Outline: (§1)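 IC50 derived from One-Glo luciferase luminescence after 20–24 h at 37 °C. Peptides titrated 4-fold at 0.006–100 nmol/L against myostatin or 0.12–2000 nmol/L against GDF-11 in HepG2 cells carrying a transfected CAGA12-luciferase reporter, kept in 0.1% BSA EMEM.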

Myostatin [2] = target: T1, Myostatin (Homo sapiens, UniProt O14793); assay: as above; conditions: read-out: IC50 (Luciferase) Myostatin HepG2
T1 construct: active myostatin (also called mature myostatin) is a homodimer consisting of two C-terminal growth factor domains; purchased R&D systems 788-G8/CF
T1 sequence (O14793 267-375): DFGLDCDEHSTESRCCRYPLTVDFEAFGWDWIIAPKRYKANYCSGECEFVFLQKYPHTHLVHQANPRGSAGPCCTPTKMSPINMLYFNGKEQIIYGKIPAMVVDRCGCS
Outline: as §1

GDF-11 [3] = target: T2, GDF-11 (Homo sapiens, UniProt O95390); assay: Reporter gene assay for myostatin signaling in HepG2 cell line, Evaluation Procedure (1), GDF-11 inhibition; conditions: read-out: IC50 (Luciferase) GDF-11 HepG2
T2 construct: purchased R&D systems 1958-GD-G8/CF
T2 sequence (O95390 299-407): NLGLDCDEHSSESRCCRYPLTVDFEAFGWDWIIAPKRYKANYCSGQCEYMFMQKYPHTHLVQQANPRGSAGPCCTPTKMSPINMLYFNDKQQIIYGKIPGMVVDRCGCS
Outline: as §1

Myostatin [4] = target: T1, Myostatin; assay: HepG2 reporter gene assay, Evaluation Procedure (2): 2-concentrations assay, myostatin inhibition; conditions: Myostatin 10 ng/mL, HepG2; for inhibition at 0.03 µM: peptide 30nM, read-out: Myostatin Inhibition 30nM; for inhibition at 0.1 µM: peptide 100nM, read-out: Myostatin Inhibition 100nM
Outline: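 Myostatin inhibition was measured in a luciferase reporter assay using HepG2 cells transfected with a pGL3 vector containing 12 CAGA repeats upstream of luciferase. After 20 to 24 hours with 10 ng/mL myostatin, cells received One-Glo:PBS (1:1) at 100 µL/well, were shaken for 5 min, and 20 µL/well was moved to 384-well plates and read on an Envision 2104.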

GDF-11 [5] = target: T2, GDF-11; assay: HepG2 reporter gene assay, Evaluation Procedure (2): 2-concentrations assay, GDF-11 inhibition; conditions: GDF-11 10 ng/mL
Outline: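 HepG2 cells carrying the transfected pGL3(CAGA)12-luc reporter, a pGL3 vector with luciferase placed downstream of 12 CAGA repeats, were stimulated with GDF-11 at a final 10 ng/mL together with test peptide. Blank wells received no GDF-11 and no peptide. Plates were incubated 20 to 24 hours at 37°C with 5% CO2. Luminescence from One-Glo substrate was read to calculate percent inhibition.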

Row | Structure (SMILES) | IC50 (Myostatin [2]; Method B: Myostatin 1 ng/mL) [nM] | IC50 (GDF-11 [3]; Method B: GDF-11 1 ng/mL) [nM] | inhibition at 0.03 µM (Myostatin [4]) [%] | inhibition at 0.1 µM (Myostatin [4]) [%] | inhibition at 0.03 µM (GDF-11 [5]; HepG2, peptide 30nM, read-out: GDF11 Inhibition 30nM) [%] | inhibition at 0.1 µM (GDF-11 [5]; HepG2, peptide 100nM, read-out: GDF11 Inhibition 100nM) [%] | IC50 (Myostatin [2]; Method D: Myostatin 1.5 ng/mL) [nM] | IC50 (GDF-11 [3]; Method D: GDF-11 1.5 ng/mL) [nM] | Selectivity (Myostatin [1]; Method B) | Selectivity (Myostatin [1]; Method D)
1 | CCCCCCCCCC[C@@H]1NC(=O)[C@H](CC2CCCCC2)NC(=O)[C@H](CCCNC(=N)N)NC(=O)[C@H](Cc2ccc(C(=O)O)cc2)NC(=O)[C@H](Cc2cccc(OCC(=O)O)c2)NC(=O)CN(C)C(=O)[C@H]([C@@H](C)CC)NC(=O)[C@H](Cc2ccccc2)N(C)C(=O)[C@H](Cc2ccc(O)cc2)NC(=O)[C@H](Cc2c[nH]c3ccccc23)NC(=O)[C@H](C)NC(=O)[C@H](C)NC(=O)CSC[C@H](C(=O)N2CCN(CC(=O)O)CC2)NC(=O)[C@H](Cc2ccccc2)N(C)C(=O)[C@H](CCC(=O)O)N(C)C1=O [Myostatin_99_v261] ({CH2CO}-AAWY[NMeF]I[Sar][Phe(3-OCH2COOH)][Phe(4-COOH)]R[Cha][Gly(decyl)][NMeE][NMeF][dC]-{Piperazinyl(4-CH2COOH)}; thioether N-15) | 0.16 | 29 | 26 | 72 |  |  |  |  | 181 | 
2 | CCCCCCCCCC[C@@H]1NC(=O)[C@H](Cc2ccccc2)N(C)C(=O)[C@H](CCCNC(=N)N)NC(=O)[C@H](Cc2ccc(C(=O)O)cc2)NC(=O)[C@H](Cc2cccc(OCC(=O)O)c2)NC(=O)CN(C)C(=O)[C@H]([C@@H](C)CC)NC(=O)[C@H](Cc2ccccc2)N(C)C(=O)[C@H](Cc2ccc(O)cc2)NC(=O)[C@H](Cc2c[nH]c3ccccc23)NC(=O)[C@H](C)NC(=O)[C@H](C)NC(=O)CSC[C@H](C(=O)N2CCN(CC(=O)O)CC2)NC(=O)[C@H](Cc2ccccc2)N(C)C(=O)[C@H](CCC(=O)O)N(C)C1=O [Myostatin_99_v265] ({CH2CO}-AAWY[NMeF]I[Sar][Phe(3-OCH2COOH)][Phe(4-COOH)]R[NMeF][Gly(decyl)][NMeE][NMeF][dC]-{Piperazinyl(4-CH2COOH)}; thioether N-15) | 0.1 | 5.3 | 91 | 98 |  |  |  |  | 55 | 
3 | CCCCCCC[C@@H]1NC(=O)[C@H](Cc2ccccc2)N(C)C(=O)[C@H](CCCNC(=N)N)NC(=O)[C@H](Cc2ccc(C(=O)O)cc2)NC(=O)[C@H](Cc2cccc(OCC(=O)O)c2)NC(=O)CN(C)C(=O)[C@H]([C@@H](C)CC)NC(=O)[C@H](Cc2ccccc2)N(C)C(=O)[C@H](Cc2ccc(OCc3ccccc3)cc2)NC(=O)[C@H](Cc2c[nH]c3ccccc23)NC(=O)[C@H](C)NC(=O)[C@H](C)NC(=O)CSC[C@H](C(=O)N2CCN(CC(=O)O)CC2)NC(=O)[C@H](Cc2ccccc2)N(C)C(=O)[C@H](C)N(C)C1=O [Myostatin_99_v298] ({CH2CO}-AAWY(Bn)[NMeF]I[Sar][Phe(3-OCH2COOH)][Phe(4-COOH)]R[NMeF][X1][NMeA][NMeF][dC]-{Piperazinyl(4-CH2COOH)}; thioether N-15) | 0.11 | 6.8 | 100 | 100 | 12 | 55 |  |  | 62 | 
4 | CCCCCCCCCC[C@@H]1NC(=O)[C@H](Cc2ccccc2)N(C)C(=O)[C@H](CCCNC(=N)N)NC(=O)[C@H](Cc2ccc(C(=O)O)cc2)NC(=O)[C@H](Cc2cccc(OCC(=O)O)c2)NC(=O)[C@H]2CCCN2C(=O)[C@H]([C@@H](C)CC)NC(=O)[C@H](Cc2ccccc2)N(C)C(=O)[C@H](Cc2ccc(O)cc2)NC(=O)[C@H](Cc2c[nH]c3cc(O)ccc23)NC(=O)[C@H](C)NC(=O)[C@H](C)NC(=O)CSC[C@H](C(=O)N2CCN(CC(=O)O)CC2)NC(=O)[C@H](Cc2ccccc2)N(C)C(=O)[C@H](CCC(=O)O)N(C)C1=O [Myostatin_99_v384] ({CH2CO}-AA[Trp(6-OH)]Y[NMeF]I[dP][Phe(3-OCH2COOH)][Phe(4-COOH)]R[NMeF][Gly(decyl)][NMeE][NMeF][dC]-{Piperazinyl(4-CH2COOH)}; thioether N-15) |  |  |  |  |  |  | 0.04 | 32.8 |  | 805.658

Continued, in another order:

Row | IC50 (Myostatin [2]; Method B: Myostatin 1 ng/mL) [nM] | IC50 (GDF-11 [3]; Method B: GDF-11 1 ng/mL) [nM] | inhibition at 0.03 µM (Myostatin [4]) [%] | inhibition at 0.1 µM (Myostatin [4]) [%] | inhibition at 0.03 µM (GDF-11 [5]; HepG2, peptide 30nM, read-out: GDF11 Inhibition 30nM) [%] | inhibition at 0.1 µM (GDF-11 [5]; HepG2, peptide 100nM, read-out: GDF11 Inhibition 100nM) [%] | IC50 (Myostatin [2]; Method D: Myostatin 1.5 ng/mL) [nM] | IC50 (GDF-11 [3]; Method D: GDF-11 1.5 ng/mL) [nM] | Structure (SMILES) | Selectivity (Myostatin [1]; Method B) | Selectivity (Myostatin [1]; Method D)
5 |  |  |  |  |  |  | 0.17 | 42.5 | CCCCCCCCCC[C@@H]1NC(=O)[C@H](Cc2ccccc2)N(C)C(=O)[C@H](CCCNC(=N)N)NC(=O)[C@H](Cc2ccc(C(=O)O)cc2)NC(=O)[C@H](Cc2cccc(OCC(=O)O)c2)NC(=O)CN(CC)C(=O)[C@H]([C@@H](C)CC)NC(=O)[C@H](Cc2ccccc2)N(C)C(=O)[C@H](Cc2ccc(O)cc2)NC(=O)[C@H](Cc2c[nH]c3cc(O)ccc23)NC(=O)[C@H](C)NC(=O)[C@H](C)NC(=O)CSC[C@H](C(=O)N2CCN(CC(=O)O)CC2)NC(=O)[C@H](Cc2ccccc2)N(C)C(=O)[C@H](CCC(=O)O)N(C)C1=O [Myostatin_99_v385] ({CH2CO}-AA[Trp(6-OH)]Y[NMeF]I[NEtG][Phe(3-OCH2COOH)][Phe(4-COOH)]R[NMeF][Gly(decyl)][NMeE][NMeF][dC]-{Piperazinyl(4-CH2COOH)}; thioether N-15) |  | 251.449
6 |  |  |  |  |  |  | 0.22 | 29.6 | CCCCCCCC[C@@H]1NC(=O)[C@H](Cc2ccccc2)N(C)C(=O)[C@H](CCCNC(=N)N)NC(=O)[C@H](Cc2ccc(OC)cc2)NC(=O)[C@H](Cc2cccc(OCC(=O)O)c2)NC(=O)CN(C)C(=O)[C@H]([C@@H](C)CC)NC(=O)[C@H](Cc2ccccc2)N(C)C(=O)[C@H](Cc2ccc(O)cc2)NC(=O)[C@H](Cc2c[nH]c3cc(O)ccc23)NC(=O)[C@H](C)NC(=O)CN(CCCOC)C(=O)CSC[C@H](C(N)=O)NC(=O)[C@H](Cc2ccccc2)N(C)C(=O)[C@H](C)N(C)C1=O [Myostatin_99_v418] ({CH2CO}-[Gly(N-(CH2)3OMe)]A[Trp(6-OH)]Y[NMeF]I[Sar][Phe(3-OCH2COOH)]Y(Me)R[NMeF][Gly(octyl)][NMeA][NMeF][dC]-NH2; thioether N-15) |  | 136.2
